Data as given in patent US5354864A, “3-(9-acridinylamino)-5-hydroxymethylaniline derivatives as anticancer agents” (Sloan-Kettering Institute for Cancer Research, priority 1992, dated 1994).
Where two headings read alike, the source gives them in different places.

Key:
[1] = tested on: mouse leukemia L1210 cells; assay: In vitro cytotoxicity, growth inhibition of mouse leukemia L1210 cells; type: cell-based
[2] = tested on: human leukemia HL-60 cells; assay: In vitro cytotoxicity, growth inhibition of human leukemia HL-60 cells; type: cell-based
L1210 tumor = assay: Chemotherapeutic effects on L1210 tumor bearing BDF^1 mice; type: in vivo, mouse; conditions: day 1, QD × 4 + Day 7, QD × 2; for % Increase in lifespan: 25% or greater indicates therapeutic activity; for Average survival time: control 7.2 days
Source text: Table 2 lists typical examples of chemotherapeutic effects of 3-(9-acridinylamino)-5-hydroxymethylaniline derivatives of formula I on L1210 tumor bearing BDF^1 mice in vivo.
^a Female mice, 19-21 grams, inoculated with 10^6 L1210 cells i.p
treatment schedule was day 1, QD × 4 + Day 7, QD × 2, i.p.

[3] = Lethal doses to BDF^1 mice; type: in vivo; conditions: i.p.
Source text: ^b Lethal Doses of these compounds to BDF^1 mice have been

[4] = 37° C.; cited from earlier work
L1210 leukemia = conditions: Cain et al., J. Med. Chem. 1975; cited from earlier work
experimental tumors = conditions: Corbett et al. 1977; Goldin et al. 1981; cited from earlier work
solid tumors = conditions: Casper et al. 1980; cited from earlier work
topoisomerase II = conditions: Nelson et al. 1984; Pommier et al. 1985; cited from earlier work
DNA [5] = conditions: Nelson et al. 1984; Pommier et al. 1985; cited from earlier work
DNA [6] = conditions: Wilson et al. 1984; cited from earlier work
[7] = mouse leukemia L1210, read-out: IC50 for Cell growth Inhibition, L1210
[8] = human leukemia HL-60, read-out: IC50 for Cell growth Inhibition, HL60

| SMILES | IC50 [1, 7] [nM] | IC50 [2, 8] [nM] | % Increase in lifespan (L1210 tumor; 5 mg/kg i.p.) [%] | Average weight change, Day 7 (L1210 tumor; 5 mg/kg i.p.) | Average survival time (L1210 tumor; 5 mg/kg i.p.) [days] | % Increase in lifespan (L1210 tumor; 10 mg/kg i.p.) [%] | Average weight change, Day 7 (L1210 tumor; 10 mg/kg i.p.) | Average survival time (L1210 tumor; 10 mg/kg i.p.) [days] | % Increase in lifespan (L1210 tumor; 20 mg/kg i.p.) [%] | Average weight change, Day 7 (L1210 tumor; 20 mg/kg i.p.) [grams] | Average weight change, Day 11 (L1210 tumor; 20 mg/kg i.p.) [grams] | Average survival time (L1210 tumor; 20 mg/kg i.p.) [days] | Lethal dose to BDF^1 mice ([3]; QD Day 1-Day 4, Day 7-Day 8) [mg/kg] | further results |
| --- | --- | --- | --- | --- | --- | --- | --- | --- | --- | --- | --- | --- | --- | --- |
| Nc1cc(CO)cc(Nc2c3ccccc3nc3ccccc23)c1 [Ia, 3-(9-acridinylamino)-5-hydroxymethylaniline] | 26 | 97 | 94 | +1.0 grams | 14.0 | 108 | -0.5 grams | 15.0 | – | – | – | – | – | Average weight change, Day 11 (L1210 tumor; 5 mg/kg i.p.): +2.0 grams; Average weight change, Day 11 (L1210 tumor; 10 mg/kg i.p.): +0.0 grams; Lethal dose to BDF^1 mice ([3]; QD Day 1-Day 4 + Day 7): 20 mg/kg |
| CC(=O)CCC(=O)Nc1cc(COC(=O)CCC(C)=O)cc(Nc2c3ccccc3nc3ccccc23)c1 [Ib, 3-(9-acridinylamino)-N,O-bis(acetonylacetyl)-5-hydroxymethylaniline] | 98 | 3 | 25 | +2.0 grams | 9.0 | 53 | +2.0 grams | 11.0 | 94 | -3.0 | -4.0 | 14.0 | 50 | – |
| CC(=O)CCC(=O)Nc1cc(CO)cc(Nc2c3ccccc3nc3ccccc23)c1 [Ic, 3-(9-acridinylamino)-5-hydroxymethyl-N-acetonylacetylaniline] | 73 | 5 | 53 | +2.0 grams | 11.0 | 25 | +1.5 grams | 9.0 | 192 | -1.5 | -2.0 | 21.0 | 50 | – |
| O=C(O)CCC(=O)Nc1cc(COC(=O)CCC(=O)O)cc(Nc2c3ccccc3nc3ccccc23)c1 [Id, 3-(9-acridinylamino)-5-succinyloxymethyl-N-succinylaniline] | 2000 | 859 | – | – | – | – | – | – | – | – | – | – | – | – |
| O=C(O)CCC(=O)Nc1cc(CO)cc(Nc2c3ccccc3nc3ccccc23)c1 [Ie, 3-(9-acridinylamino)-5-hydroxymethyl-N-succinylaniline] | 1070 | 999 | – | – | – | – | – | – | – | – | – | – | – | – |
| COc1cc(NS(C)(=O)=O)ccc1Nc1c2ccccc2nc2ccccc12 [m-AMSA, 4'-(9-acridinylamino)methanesulfon-m-anisidide] | – | – | – | – | – | – | – | – | – | – | – | – | – | IC50 ([1]; Mus musculus, L1210, read-out: IC50 for Cell growth Inhibition, L1210): 4 nM; IC50 ([2]; Homo sapiens, HL-60, read-out: IC50 for Cell growth Inhibition, HL60): 80 nM; half life in the presence of fresh mouse blood [4]: about 23 minutes; activity against the L1210 leukemia (L1210 leukemia): high activity; activity against a spectrum of experimental tumors (experimental tumors): high activity; activity against a number of solid tumors during Phase II trials (solid tumors): inactive; topoisomerase II inhibition (topoisomerase II): topoisomerase II inhibitor; DNA intercalation (DNA [5]): DNA intercalator; chromosomal aberrations and DNA damage (DNA [6]): induced chromosomal aberrations and DNA damage |
